Source: US20250325560A1, “METHODS FOR IMPROVING MUSCLE MASS, STRENGTH, OR FUNCTION WITH A COMBINATION OF TESTOSTERONE AND GROWTH HORMONE” (University of Rochester, priority 2022, published 2025)

Columns and labels:
[1] = test system: FSHD patients; experiment: Safety and tolerability monitoring in clinical study; format: in vivo, human; details: intramuscular injection into the gluteal muscle, when properly given
Text: Safety outcome measures included (1) Changes from baseline in laboratory test results, vital signs, and EKG results, (2) Occurrence of serious adverse events, and (3) Occurrence of non-serious adverse events. Exploratory efficacy outcome measures included the following: • 1. Composite Quantitative Muscle Testing (QMT) score • 2. Composite Manual Muscle Testing (MMT) score • 3. FSHD Clinical Outcome Measure (FSHD-COM), total and individual test scores • 4. FSHD-Health Index (FSHD-HI), disease-specific patient-reported outcome measure • 5. Forced Vital Capacity (FVC) • 6. Epworth Sleepiness Scale • 7. Fatigue Severity Scale • 8. Dual Energy X-Ray Absorptiometry (DEXA) Lean Body Mass (total and regional) • 9. PROMIS-57 • 10. Individualized Neuromuscular Quality of Life Questionnaire (INQoL) • 11. Beck Depression Inventory (BDI) • 12. Six minute walk distance
For safety assessments and adverse event assessments, various clinical safety Laboratory tests were carried out. For treatment-specific assessments, the subjects were monitored for the following treatment-related events: • peripheral edema • carpal tunnel syndrome • gynecomastia • insulin resistance • arthralgia • increased erythropoiesis • reduced HDL cholesterol • elevated prostate specific antigen • elevated blood pressure […]

[2] = test system: adult muscular dystrophy population; details: heterogeneous adult muscular dystrophy group with normal baseline testosterone; after 3 months of treatment; cited from earlier work
[3] = test system: patients with myotonic dystrophy; details: 40 patients with myotonic dystrophy; cited from earlier work

Compound: CCCCCCC(=O)O[C@H]1CC[C@H]2[C@@H]3CCC4=CC(=O)CC[C@]4(C)[C@H]3CC[C@]12C [testosterone enanthate, Testosterone enanthate]
- Tolerability of intramuscular injections [1]: well tolerated

Compound: C[C@]12CC[C@H]3[C@@H](CCC4=CC(=O)CC[C@@]43C)[C@@H]1CC[C@@H]2O [testosterone, 17-β-hydroxyandrost-4-en-3-one]
- Safety and body composition effects of testosterone in isolation [2]: safe and increase lean body mass, reduce body fat, and improve basal metabolic rate
- Safety and efficacy of testosterone in isolation [3]: safe, tolerable, and able to improve both creatinine excretion and lean body mass while not statistically improving overall strength
